Source: US8829014B2, “Thiazole and thiophene analogues, and their use in treating autoimmune diseases and cancers” (Board of Supervisors of Louisiana State University and …, priority 2006, dated 2014)

Tests used:
carageenan-induced edema = assay: Carrageenan-induced rat paw edema test (anti-inflammatory activity); type: in vivo, Sprague-Dawley rats; details: rat paw edema, 50 mg/kg, reading 3 hours after carrageenan, [(Control−Test)/Control]×100%; for inhibition in vivo at 50 mg/kg: Rattus norvegicus, po, 3 h, read-out: % Protection P
Summary of the method: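 Edema was raised by sub-plantar injection of 1% carrageenan into the right hind paw, 1 h after dosing 18 h-fasted male/female Sprague-Dawley rats (150-250 g) with 50 mg/kg p.o. in 0.1% CMC. Swelling was measured by displacement 3 h later and expressed as % protection against saline control.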

NF-κB = assay: TNF-α-induced NF-κB-dependent luciferase expression in HEK cells; type: cell-based; details: luciferase in HEK/NF-κB cells, as described in Example 398; for inhibition at 1 µM: Homo sapiens, HEK293, 1 uM, read-out: NFkB inhibition @ 1 uM
AP-1 = assay: PMA-induced AP-1 luciferase expression in HEK cells; type: cell-based; details: luciferase in HEK/AP-1 cells, as described in Example 398; for inhibition at 1 µM: AP1, 1 uM

With “2-[4-(4-Methylsulfanyl-phenyl)-5-morpholin-4-yl-thiophen-2-yl]-3-phenyl-3H-quinazolin-4-one [Example 276]” the “% Protection P” value (carageenan-induced edema) was 49%, the “NFkB inhibition @ 1 uM” value (NF-κB) was −10 and the “AP-1 inhibition @ 1 uM” value (AP-1) was −17.
With “4-{3-(4-Methanesulfonyl-phenyl)-5-[5-methyl-5-(2,2,2-trifluoro-ethoxy)-pyridine-2-yl]-thiophene-2-yl}-morpholine [Example 53]” the “% Protection P” value (carageenan-induced edema) was 2.08%, the “NFkB inhibition @ 1 uM” value (NF-κB) was −2.17 and the “AP-1 inhibition @ 1 uM” value (AP-1) was 25.04.
With `Cc1ccc(C(=O)c2cc(-c3ccccc3)c(N3CCOCC3)s2)cc1` [Example 43, (5-Morpholin-4-yl-4-phenyl-thiophen-2-yl)-p-tolyl-methanone] the inhibition in vivo at 50 mg/kg (carageenan-induced edema) was 5.33%, the inhibition at 1 µM (NF-κB) was -15.3% and the inhibition at 1 µM (AP-1) was 27.3%.
In the case of `COc1ccc(C(=O)c2cc(-c3ccccc3)c(N3CCOCC3)s2)cc1` [Example 44, (4-Methoxy-phenyl)-(5-morpholin-4-yl-4-phenyl-thiophene-2-yl)-methanone], the inhibition in vivo at 50 mg/kg (carageenan-induced edema) is reported as 66.7%, the inhibition at 1 µM (NF-κB) is reported as 14.9% and the inhibition at 1 µM (AP-1) is reported as 55.4%.
`CSc1ccc(C(=O)c2cc(-c3ccccc3)c(N3CCOCC3)s2)cc1` [Example 47, (4-Methylsulfanyl-phenyl)-(5-morpholin-4-yl-4-phenyl-thiophene-2-yl)-methanone] was tested, and the inhibition in vivo at 50 mg/kg (carageenan-induced edema) was 5%, the inhibition at 1 µM (NF-κB) was -1.5% and the inhibition at 1 µM (AP-1) was 21.2%.
For `O=C(c1ccncc1)c1cc(-c2ccccc2)c(N2CCOCC2)s1` [Example 51, (5-Morpholin-4-yl-4-phenyl-thiophene-2-yl)-pyridine-4-yl-methanone], the inhibition in vivo at 50 mg/kg (carageenan-induced edema) was 39.6%, the inhibition at 1 µM (NF-κB) was 8.36% and the inhibition at 1 µM (AP-1) was 16.8%.
Compound `COc1c(C)cc(-c2cc(-c3ccc(S(C)(=O)=O)cc3)c(N3CCOCC3)s2)nc1C` [Example 52, 4-[3-(4-Methanesulfonyl-phenyl)-5-(5-methoxy-4,6-dimethyl-pyridine-2-yl)-thiophene-2-yl]-morpholine] has an inhibition in vivo at 50 mg/kg (carageenan-induced edema) of 61.1%, an inhibition at 1 µM (NF-κB) of 5.81% and an inhibition at 1 µM (AP-1) of -7.93%.
Compound `COc1ccc(C(=O)c2cc(-c3ccc(S(C)(=O)=O)cc3)c(N3CCOCC3)s2)cc1` [Example 56, [4-(4-Methanesulfonyl-phenyl)-5-morpholin-4-yl-thiophene-2-yl]-(4-methoxy-phenyl)-methanone] has an inhibition in vivo at 50 mg/kg (carageenan-induced edema) of 77.8%, an inhibition at 1 µM (NF-κB) of 18.1% and an inhibition at 1 µM (AP-1) of 76.1%.
For `CS(=O)(=O)c1ccc(-c2cc(C(=O)c3ccncc3)sc2N2CCOCC2)cc1` [Example 63, [4-(4-Methanesulfonyl-phenyl)-5-morpholin-4-yl-thiophene-2-yl]-pyridin-4-yl-methanone], the inhibition in vivo at 50 mg/kg (carageenan-induced edema) was 50%, the inhibition at 1 µM (NF-κB) was 10.5% and the inhibition at 1 µM (AP-1) was 5.71%.
`COc1c(C)cc(C(=O)c2cc(-c3ccc(NC(C)=O)cc3)c(N3CCOCC3)s2)nc1C` [Example 64, N-{4-[5-(5-Methoxy-4,6-dimethyl-pyridine-2-carbonyl)2-morpholin-4-yl-thiophene-3-yl]-phenyl}-acetamide] was tested, and the inhibition in vivo at 50 mg/kg (carageenan-induced edema) was 49%, the inhibition at 1 µM (NF-κB) was -4.95% and the inhibition at 1 µM (AP-1) was 26.2%.
`CC(=O)Nc1ccc(-c2cc(C(=O)c3ccccc3)sc2N2CCOCC2)cc1` [Example 66, N-[4-(5-Benzoyl-2-morpholin-4yl-thiophene-3-yl)-phenyl]-acetamide] was tested, and the inhibition in vivo at 50 mg/kg (carageenan-induced edema) was 40%, the inhibition at 1 µM (NF-κB) was 24.2% and the inhibition at 1 µM (AP-1) was -2.98%.
Compound `CC(=O)Nc1ccc(-c2cc(C(=O)c3ccc(Cl)cc3Cl)sc2N2CCOCC2)cc1` [Example 70, N-{4-[5-(2,4-Dichloro-benzoyl)-2-morpholin-4-yl-thiophene-3-yl]-phenyl}-acetamide] has an inhibition in vivo at 50 mg/kg (carageenan-induced edema) of 39.2%, an inhibition at 1 µM (NF-κB) of 18.6% and an inhibition at 1 µM (AP-1) of 54%.
For `CSc1ccc(C(=O)c2cc(-c3ccc(NC(C)=O)cc3)c(N3CCOCC3)s2)cc1` [Example 71, N-{4-[5-(4-Methansulfanyl-benzoyl)-2-morpholin-4-yl-thiophene-3-yl]-phenyl}-acetamide], the “% Protection P” value (carageenan-induced edema) was 2.5%, the “NFkB inhibition @ 1 uM” value (NF-κB) was 7.6 and the “AP-1 inhibition @ 1 uM” value (AP-1) was 27.75.
For `CC(=O)Nc1ccc(C(=O)c2cc(-c3ccc(NC(C)=O)cc3)c(N3CCOCC3)s2)cc1` [Example 73, N-{4-[5-(4-acetylamino-benzoyl)-2-morpholin-4-yl-thiophene-3-yl]-phenyl}-acetamide], the inhibition in vivo at 50 mg/kg (carageenan-induced edema) was -23.5%, the inhibition at 1 µM (NF-κB) was -28.6% and the inhibition at 1 µM (AP-1) was 19.9%.
Work on `CC(=O)Nc1ccc(-c2cc(C(=O)c3ccncc3)sc2N2CCOCC2)cc1` [Example 75, N-{4-[2-Morpholin-4-yl-5-(pyridine-4-carbonyl)-thiophene-3-yl]-phenyl}-acetamide] yielded an inhibition in vivo at 50 mg/kg (carageenan-induced edema) of 45.7%, an inhibition at 1 µM (NF-κB) of 17.4% and an inhibition at 1 µM (AP-1) of 45.5%.
Compound `COc1ccc(C(=O)c2cc(-c3ccc(Cl)cc3)c(N3CCOCC3)s2)cc1` [Example 80, [4-(4-Chloro-phenyl)-5-morpholin-4-yl-thiophen-2-yl]-(4-methoxy-phenyl)-methanone] has an inhibition in vivo at 50 mg/kg (carageenan-induced edema) of 18.9%, an inhibition at 1 µM (NF-κB) of -2.91% and an inhibition at 1 µM (AP-1) of 30.6%.
Compound `O=C(c1cc(-c2ccc(Cl)cc2)c(N2CCOCC2)s1)c1ccc(Cl)cc1Cl` [Example 82, [4-(4-Chloro-phenyl)-5-morpholin-4-yl-thiophen-2-yl]-(2,4-dichloro-phenyl)-methanone] has an inhibition in vivo at 50 mg/kg (carageenan-induced edema) of 22.8%, an inhibition at 1 µM (NF-κB) of 0.6% and an inhibition at 1 µM (AP-1) of 34.3%.
With `CC(=O)Nc1ccc(-c2cc(-c3nc4ccccc4c(=O)n3-c3ccccc3)sc2N2CCOCC2)cc1` [Example 274, N-{4-[2-Morpholin-4-yl-5-(4-oxo-3-phenyl-3-,4-dihydro-quinazolin-2-yl)-thiophene-3-yl]-phenyl}-acetamide] the “% Protection P” value (carageenan-induced edema) was 28% and the “NFkB inhibition @ 1 uM” value (NF-κB) was 29.
`O=c1c2ccccc2nc(-c2cc(-c3ccncc3)c(N3CCOCC3)s2)n1-c1ccccc1` [Example 277] was tested, and the “% Protection P” value (carageenan-induced edema) was 65% and the “AP-1 inhibition @ 1 uM” value (AP-1) was 38.
`COc1ccccc1-n1c(-c2cc(-c3ccncc3)c(N3CCOCC3)s2)nc2ccccc2c1=O` [Example 298] was tested, and the “% Protection P” value (carageenan-induced edema) was 42% and the “NFkB inhibition @ 1 uM” value (NF-κB) was 55.
`COc1ccc(Nc2nc(NC(=O)Nc3ccc(F)cc3)c(C(=O)c3ccncc3)s2)cc1` [Example 365, 1-(4-Fluoro-phenyl)-3-[2-(4-methoxy-phenylamino)-5-(pyridine-4-carbonyl)-thiazol-4-yl]-urea] gave an inhibition in vivo at 50 mg/kg (carageenan-induced edema) of 69.6%.
`COc1ccc(Nc2nc(NC(=O)Nc3ccc(F)cc3)c(-c3cc(C)c(OC)c(C)n3)s2)cc1` [Example 366, 1-(4-Fluoro-phenyl)-3-[5-(5-methoxy-4,6-dimethyl-pyridin-2-yl)-2-(4-methoxy-phenylamino)-thiazol-4-yl]-urea] was tested, and the inhibition in vivo at 50 mg/kg (carageenan-induced edema) was 19.1%.
`COc1ccc(C(=O)c2sc(N3CCN(C(=O)c4ccco4)CC3)nc2-c2ccco2)cc1` [Example 372, {2-[4-(Furan-2-carbonyl)-piperazin-1-yl]-4-furan-2-yl-thiazol-5-yl}-(4-methoxy-phenyl)-methanone] was tested, and the inhibition in vivo at 50 mg/kg (carageenan-induced edema) was 52.2%.
`O=C(c1ccccn1)c1sc(N2CCN(C(=O)c3ccco3)CC2)nc1-c1ccco1` [Example 380, {2-[4-(Furan-2-carbonyl)-piperazin-1-yl]-4-furan-2-yl-thiazol-5-yl}-pyridin-2-yl-methanone] gave an inhibition in vivo at 50 mg/kg (carageenan-induced edema) of 42%.
For `Cc1ccc(C(=O)c2sc(N3CCN(C(=O)c4ccco4)CC3)nc2-c2ccccc2)cc1` [Example 381, {2-[4-(Furan-2-carbonyl)-piperazin-1-yl]-4-phenyl-thiazol-5-yl}-tolyl-methanone], the “% Protection P” value (carageenan-induced edema) was 53% and the “AP-1 inhibition @ 1 uM” value (AP-1) was 10.42.
`COc1ccc(C(=O)c2sc(N3CCN(C(=O)c4ccco4)CC3)nc2-c2ccccc2)cc1` [Example 382, {2-[4-(Furan-2-carbonyl)-piperazin-1-yl]-4-phenyl-thiazol-5-yl}-(4-methoxy-phenyl)-methanone] gave an inhibition in vivo at 50 mg/kg (carageenan-induced edema) of 46%.
Compound `O=C(c1ccncc1)c1sc(N2CCN(C(=O)c3ccco3)CC2)nc1-c1ccccc1` [Example 387, {2-[4-(Furan-2-carbonyl)-piperazin-1-yl]-4-phenyl-thiazol-5-yl}-pyridin-4-yl-methanone] has an inhibition in vivo at 50 mg/kg (carageenan-induced edema) of 32%.
For `COc1ccccc1Nc1nc(-c2ccccc2)c(C(=O)c2sc(Nc3ccccc3OC)nc2-c2ccccc2)s1` [Example 391, Bis-[2-(2-methoxy-phenylamino)-4-phenyl-thiazol-5-yl]-methanone], the inhibition in vivo at 50 mg/kg (carageenan-induced edema) was 59%.
For `COc1cccc(Nc2nc(-c3ccccc3)c(C(=O)c3sc(Nc4cccc(OC)c4)nc3-c3ccccc3)s2)c1` [Example 392, Bis-[2-(3-methoxy-phenylamino)-4-phenyl-thiazol-5-yl]-methanone], the inhibition in vivo at 50 mg/kg (carageenan-induced edema) was 62%.
Work on `COc1ccc(Nc2nc(-c3ccccc3)c(C(=O)c3sc(Nc4ccc(OC)cc4)nc3-c3ccccc3)s2)cc1` [Example 393, Bis-[2-(4-methoxy-phenylamino)-4-phenyl-thiazol-5-yl]-methanone] yielded an inhibition in vivo at 50 mg/kg (carageenan-induced edema) of 32%.
“Bis-(2-methylamino-4-benzayl-thiazole-5-yl)-methanone [Example 132]” was tested, and the “% Protection P” value (carageenan-induced edema) was 47%.
For “Diphenyl[carbonylbis(4-Benzyl-1,3-thiazole-5,2-diyl)]biscarbamate [Example 395]”, the “% Protection P” value (carageenan-induced edema) was 66%.
In the case of “N-[4-(5-Morpholin-4-yl-4-thiophene-2-carbonyl)-phenyl]-acetamide [Example 49]”, the “% Protection P” value (carageenan-induced edema) is reported as 68.31%.
In the case of “[4-(4-Chloro-phenyl)-5-morpholin-4-yl-thiophen-2-yl]-(5-methoxy-4,6-dimethyl-pyridin-2-yl)-methanone [Example 76]”, the “% Protection P” value (carageenan-induced edema) is reported as 17%.
